Test results taken from PMC8445441, “Elucidating the mechanism by which synthetic helper peptides sensitize Pseudomonas aeruginosa to multiple antibiotics” (PLoS Pathogens, 2021).
Read-outs that look alike come from different tables or passages of the source.

Columns and labels:
P. aeruginosa AUMC-Pa-3 = experiment: microbe, parasite or virus in culture
Method in brief: (§1)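 Growth inhibition was scored by eye after an 18 h, 37 °C incubation of drug-bacteria mixtures in Mueller-Hinton broth. Inoculum suspension held approximately 1 × 10^6 CFU/mL before 1:1 mixing.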

P. aeruginosa AUMC-Pa-4 = experiment: microbe, parasite or virus in culture
Method in brief: as §1

P. aeruginosa AUMC-Pa-5 = experiment: microbe, parasite or virus in culture; details: strain AUMC-Pa-5
Method in brief: as §1

P. aeruginosa AUMC-Pa-6 = experiment: microbe, parasite or virus in culture
Method in brief: as §1

P. aeruginosa PAO1 = experiment: microbe, parasite or virus in culture; details: for FICI / MICac: the MIC for the antibiotic in the combination: S3 Table, PAO1
Method in brief: as §1

P. aeruginosa ATCC27853 = experiment: microbe, parasite or virus in culture; set-up: MICa: MIC of the antibiotic / MICac: MIC of the antibiotic in the combination: unit not given beside the values
Procedure: (§2) The MIC tests were performed in triplicate using broth microdilution in accordance with Clinical and Laboratory Standards Institute (CLSI) recommendations (http://iacld.ir/DL/public/CLSI-2018-M100-S28.pdf). Briefly, drugs were two-fold diluted in MHB and mixed with an equal volume of bacterial suspensions containing approximately 1 × 10^6 CFU/mL in 96-well microliter plate. After 18 h incubation at 37 °C, the MIC values were defined as the lowest concentrations of antibiotics with no visible growth of bacteria. […] Otherwise, 1/4 MIC of the peptide was used in the combination. […] If needed, membrane compounds PG, PE, PC, CL or LPS, or membrane stabilizers MgCl2 or CaCl2, or efflux pumps inhibitor PAβN were added to the broth medium to clarify the effect of other substances on the synergy between peptide and antibiotics. All the tests were performed in triplicate.
(§3) The fractional inhibitory concentration (FIC) indices were calculated using the previously described formula FICI = FICa + FICb = MICac/MICa + MICbc/MICb. The FICI was interpreted according to EUCAST [65] as follows: synergistic, FICI≤0.5; additive, 0.5<FICI≤1; indifferent, 1<FICI<2; antagonistic, FICI ≥2. For the FICI calculations, twice the highest concentration tested was used in the cases where the MIC was not reached.

P. aeruginosa NR-31040 = experiment: microbe, parasite or virus in culture; set-up: MICa: MIC of the antibiotic / MICac: MIC of the antibiotic in the combination: unit not given beside the values; details: strain NR-31040
Procedure: as §2, §3

P. aeruginosa NR-31041 = experiment: microbe, parasite or virus in culture; set-up: MICa: MIC of the antibiotic / MICac: MIC of the antibiotic in the combination: unit not given beside the values
Procedure: as §2, §3

P. aeruginosa PA14 = experiment: microbe, parasite or virus in culture; set-up: MICa: MIC of the antibiotic / MICac: MIC of the antibiotic in the combination: unit not given beside the values; details: strain PA14
Procedure: as §2, §3

P. aeruginosa PAK = experiment: microbe, parasite or virus in culture; set-up: MICa: MIC of the antibiotic / MICac: MIC of the antibiotic in the combination: unit not given beside the values
Procedure: as §2, §3

P. aeruginosa HM-214 = details: strain HM-214; antibiotic + D-11 (MICb/MICbc 128/4)
Procedure: as §2, §3

P. aeruginosa AUMC-Pa-1 = details: strain AUMC-Pa-1; antibiotic + D-11 (MICb/MICbc 128/4)
Procedure: as §2, §3

P. aeruginosa AUMC-Pa-2 = details: strain AUMC-Pa-2; antibiotic + D-11 (MICb/MICbc 64/4)
Procedure: as §2, §3

[1] = tested on: clinical P. aeruginosa isolates; experiment: microbe, parasite or virus in culture; details: Pseudomonas aeruginosa, 18 h
Method in brief: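 Broth microdilution per CLSI in MHB, two-fold drug dilutions mixed with an equal volume of bacteria at about 1 × 10^6 CFU/mL. After 18 h at 37 °C, MIC taken as the lowest concentration with no visible growth; run in triplicate.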

[2] = antibiotic alone, unit not given
[3] = with D-11 at MICbc 4, unit not given
[4] = antibiotic + D-11 (MICb/MICbc 128/4)

CO[C@@H]1[C@@H](OC(=O)c2ccc(C)[nH]2)[C@@H](O)[C@H](Oc2ccc3c(O)c(NC(=O)c4ccc(O)c(CC=C(C)C)c4)c(=O)oc3c2Cl)OC1(C)C [Chlorobiocin]
MIC (P. aeruginosa AUMC-Pa-3; Pseudomonas aeruginosa, AUMCPA3, 18 h, read-out: MICa: MIC of the antibiotic): 0.5 µM | FICI (P. aeruginosa AUMC-Pa-3; strain AUMC-Pa-3, antibiotic + D-11 (MICb/MICbc 128/4)): 1.031 | MICac: MIC of the antibiotic in the combination (P. aeruginosa AUMC-Pa-3; strain AUMC-Pa-3, with D-11 at MICbc 4, unit not given): 0.5/0.5 | MIC (P. aeruginosa AUMC-Pa-4; Pseudomonas aeruginosa, AUMCPA4, 18 h, read-out: MICa: MIC of the antibiotic): 0.25 µM | FICI (P. aeruginosa AUMC-Pa-4; strain AUMC-Pa-4, antibiotic + D-11 (MICb/MICbc 128/4)): 2.031 | MICac: MIC of the antibiotic in the combination (P. aeruginosa AUMC-Pa-4; strain AUMC-Pa-4, with D-11 at MICbc 4, unit not given): 0.5 | FICI (P. aeruginosa AUMC-Pa-5; antibiotic + D-11 (MICb/MICbc 64/4)): 2.063 | MICa: MIC of the antibiotic (P. aeruginosa AUMC-Pa-5; [2]): 1 | MICac: MIC of the antibiotic in the combination (P. aeruginosa AUMC-Pa-5; [3]): 2 | MIC (P. aeruginosa AUMC-Pa-6; Pseudomonas aeruginosa, AUMCPA6, 18 h, read-out: MICa: MIC of the antibiotic): 0.25 µM | FICI (P. aeruginosa AUMC-Pa-6; strain AUMC-Pa-6, antibiotic + D-11 (MICb/MICbc 64/4)): 1.063 | MICac: MIC of the antibiotic in the combination (P. aeruginosa AUMC-Pa-6; strain AUMC-Pa-6, with D-11 at MICbc 4, unit not given): 0.25/0.25 | MIC (P. aeruginosa PAO1; Pseudomonas aeruginosa, PAO1, 18 h, read-out: MICa: the MIC of antibiotics): 0.5 µM | FICI (P. aeruginosa PAO1; antibiotic + 2 μM D-11): 0.313 | FICI (P. aeruginosa PAO1; antibiotic + 4 μM D-11): 0.375 | MICac: the MIC for the antibiotic in the combination (P. aeruginosa PAO1; with 2 μM D-11): 0.125 µM | MICac: the MIC for the antibiotic in the combination (P. aeruginosa PAO1; with 4 μM D-11): 0.125 µM | MIC (P. aeruginosa ATCC27853; Pseudomonas aeruginosa, ATCC27853, 18 h, read-out: MICa: MIC of the antibiotic): 0.5 µM | FICI (P. aeruginosa ATCC27853; strain ATCC27853, antibiotic + D-11 (MICb/MICbc 32/4)): 1.125 | MICac: MIC of the antibiotic in the combination (P. aeruginosa ATCC27853; strain ATCC27853, with D-11 at MICbc 4, unit not given): 0.5/0.5 | FICI (P. aeruginosa NR-31040; [4]): 1.031 | MICa: MIC of the antibiotic (P. aeruginosa NR-31040; [2]): 1/1 | MICac: MIC of the antibiotic in the combination (P. aeruginosa NR-31040; [3]): 1/1 | MIC (P. aeruginosa NR-31041; Pseudomonas aeruginosa, NR31041, 18 h, read-out: MICa: MIC of the antibiotic): 1 µM | FICI (P. aeruginosa NR-31041; strain NR-31041, antibiotic + D-11 (MICb/MICbc 64/4)): 0.563 | MICac: MIC of the antibiotic in the combination (P. aeruginosa NR-31041; strain NR-31041, with D-11 at MICbc 4, unit not given): 0.5 | FICI (P. aeruginosa PA14; [4]): 1.031 | MICa: MIC of the antibiotic (P. aeruginosa PA14; [2]): 1/1 | MICac: MIC of the antibiotic in the combination (P. aeruginosa PA14; [3]): 1/1 | MIC (P. aeruginosa PAK; Pseudomonas aeruginosa, 18 h, read-out: MICa: MIC of the antibiotic): 0.5 µM | FICI (P. aeruginosa PAK; strain PAK, antibiotic + D-11 (MICb/MICbc 64/4)): 1.063 | MICac: MIC of the antibiotic in the combination (P. aeruginosa PAK; strain PAK, with D-11 at MICbc 4, unit not given): 0.5/0.5 | FICI (P. aeruginosa HM-214): 1.031 | FICI (P. aeruginosa AUMC-Pa-1): 1.031 | FICI (P. aeruginosa AUMC-Pa-2): 2.063 | MIC ([1]; read-out: Antibiotic sensibility (MIC) of clinical P. aeruginosa isolate AUMC-Pa-1): 4 µM | MIC ([1]; read-out: Antibiotic sensibility (MIC) of clinical P. aeruginosa isolate AUMC-Pa-2): 0.25 µM | MIC ([1]; read-out: Antibiotic sensibility (MIC) of clinical P. aeruginosa isolate AUMC-Pa-3): 0.5 µM | MIC ([1]; read-out: Antibiotic sensibility (MIC) of clinical P. aeruginosa isolate AUMC-Pa-4): 0.25 µM | MIC ([1]; read-out: Antibiotic sensibility (MIC) of clinical P. aeruginosa isolate AUMC-Pa-5): 1 µM | MIC ([1]; read-out: Antibiotic sensibility (MIC) of clinical P. aeruginosa isolate AUMC-Pa-6): 0.25 µM | MIC ([1]; read-out: Antibiotic sensibility (MIC) of clinical P. aeruginosa isolate HM-214): 1 µM | MIC ([1]; read-out: Antibiotic sensibility (MIC) of clinical P. aeruginosa isolate NR-31040): 1 µM | MIC ([1]; read-out: Antibiotic sensibility (MIC) of clinical P. aeruginosa isolate NR-31041): 1 µM
